The values that follow are results of earlier work, collected in US12274730B2, “Flavonoid compositions and methods of use” (Berkley, LLC, priority 2015, dated 2025).

For the series the following is noted: general statement, no test described.

Turning to `O=c1c(O)c(-c2ccc(O)c(O)c2)oc2cc(O)cc(O)c12` [Quercetin, 2-(3,4-dihydroxyphenyl)-3,5,7-trihydroxy-4H-chromen-4-one], the Half-life is 3.5 to 11 h.
